Tested on: differentiated C2C12 myotubes
Assay: qPCR gene expression in differentiated C2C12 myotubes
Format: cell-based, mouse
Conditions: Ric peptides 100 µM, insulin positive control, qPCR normalised to GAPDH, control = 1, mean ± SEM
Experimental: C2C12 cells were used as a well-described model of skeletal muscle to evaluate the effect of peptides in gene expression, cell signaling, and glucose uptake. These cells were kindly provided by Prof. Patricia Brum, School of Physical Education and Prof. Anselmo Moriscot, Biomedical Science Institute, University of São Paulo, São Paulo, Brazil. C2C12 cells were cultured and maintained in high glucose Dulbecco's modified Eagle's medium (DMEM; Thermo Fisher Scientific, São Paulo, SP, Brazil) supplemented with 10% fetal bovine serum (FBS), 100 U/mL penicillin, and […] streptomycin in a humidified atmosphere of 5% CO2 at 37 °C. The cells were used in low pass (between passages 2 and 4) for all experiments to maintain the potential for differentiation of cultures. Cells grown to approximately 70% confluence in T75 culture flasks were treated with trypsin and seeded in various P100 culture dishes. Cells were then cultured in the presence of 10% FBS until they reach about 90% confluence, at which point the medium was replaced with DMEM containing 2% horse serum for the induction of differentiation in myotubes. During this time, the fused myoblasts formed elongated, multi-nucleated myotubes, and within 7 days more than 95% of the cells already fused into myotubes. Cultures of C2C12 were treated with phosphate buffer saline (137 mM NaCl, 2.7 mM KCl, 10 mM Na2HPO4, and 1.8 mM KH2PO4, pH 7.4; PBS; control), insulin or […], for the indicated period of time. From these treatments the cells were processed for molecular analyses. Real-time PCR (qPCR) experiments were performed to evaluate the mRNA expression levels, at basal and under stimulus, for peroxisome proliferator activator receptor gamma (PPARγ), peroxisome proliferator activator receptor […] responsive element binding protein 1 (Creb1), aldolase A, fructose-bisphosphate (ALDOA), cytochrome c oxidase subunit IV isoform 1 (Cox4i1), phosphoglycerate mutase 2 (PGAM2), troponin I, skeletal, fast 2 (TNNI2), […] (TNNT3), small muscle protein X-linked (SMPX), myosin, […] (MYH1), insulin-growth factor 1 (IGF1), Glucose transporter 4 (GLUT4), and lipoprotein lipase (LPL). Primers sequences are described in Supplementary Materials (Table S1). Cells were homogenized and total RNA extracted using Trizol according to the manufacturer's instructions (TRIzol, Life Technologies, Rockville, MD, USA). After extraction of RNA, all samples were purified and treated with DNAse using RNeasy Mini Kit (Qiagen, Foster City, CA, USA). The integrity of the RNA was verified by 1% agarose gel electrophoresis stained with ethidium bromide and visualized in ultraviolet light. […] The standard curves for all the primers used herein were previously constructed to determine the efficiency of the amplification of the target and reference genes. Quantitative PCRs were performed using the Prism 7900 sequence detection system (Applied Biosystems, Foster City, CA, USA) with 100 nM primer and 20 ng cDNA. The expression of mRNA targets was normalized by expression of gene glyceraldehyde 3-phosphate dehydrogenase (GAPDH) or hipoxantina-guanina fosforibosiltransferase (HPRT) and expressed as relative values using the 2 DDCt method. The expression levels of target genes were normalized with housekeeping genes GAPDH or HPRT, and alterations were expressed relative to control unstimulated cells. […] Therefore, the possible effects of Ric1-Ric4 (100 μM) on gene expression were evaluated. For all these experiments, insulin was used as “gold standard”/positive control, and GAPDH expression was used as normalization control (Table 2, Control “1”/100%). Relative to GAPDH expression, insulin increased the expression of all genes evaluated (Table 1). […]

Substance | relative expression of Aldolase A, fructose-bisphosphate (ALDOA) | relative expression of Cytochrome c oxidase subunit IV isoform 1 (Cox4i1) | relative expression of Peroxisome proliferator activator receptor gamma (PPARγ) | relative expression of Phosphoglycerate mutase 2 (PGAM2) | relative expression of Small muscle protein X-linked (SMPX) | relative expression of Troponin I, skeletal, fast 2 (TNNI2) | relative expression of Troponin I, skeletal, fast 3 (TNNT3) | relative expression of cAMP responsive element binding protein 1 (Creb1)
Insulin | 7.65 ± 0.96 | 6.71 ± 1.24 | 6.98 ± 1.23 | 8.26 ± 0.99 | 5.96 ± 0.98 | 6.36 ± 1.13 | 6.22 ± 0.98 | 6.48 ± 1.08
LASVSTVLTSKYR [Ric4, intracellular peptide derived from hemoglobin alpha subunit, last 13 C-terminal amino acids] | 4.22 ± 0.74 | 1.41 ± 1.12 | 1.21 ± 1.02 | 2.65 ± 0.87 | 3.21 ± 0.99 | 3.14 ± 0.65 | 2.38 ± 0.72 | 1.03 ± 0.85
